Test results published in ChEMBL document CHEMBL3407403, “Synthetic modification of hydroxychavicol by Mannich reaction and alkyne-azide cycloaddition derivatives depicting cytotoxic potential” (Eur J Med Chem, 2015).
The source made the active and inactive calls. The rule behind the calls is not given here.

Assays:
[1] = Cell cycle arrest in human HL60 cells assessed as accumulation at G1 phase at 15 uM after 24 hrs by propidium iodide-staining based flow cytometry (reference value: 36%); type: functional; details: HL-60
[2] = Cell cycle arrest in human HL60 cells assessed as accumulation at G2 phase at 10 uM after 24 hrs by propidium iodide-staining based flow cytometry (reference value: 1%); type: functional; details: HL-60
[3] = Cell cycle arrest in human HL60 cells assessed as accumulation at G2 phase at 15 uM after 24 hrs by propidium iodide-staining based flow cytometry (reference value: […]); type: functional; details: HL-60
[4] = Growth inhibition of human MIAPaCa2 cells after 72 hrs by MTT assay; type: functional, cell-based; details: MIA PaCa-2, 72 h
HepG2 [5] = experiment: Growth inhibition of human HepG2 cells at 50 uM after 72 hrs by MTT assay; type: functional; details: HepG2, 72 h, read-out: GI
[6] = Growth inhibition of human MIAPaCa2 cells at 30 uM after 72 hrs by MTT assay; type: functional; details: MIA PaCa-2, 72 h, read-out: GI
HL-60 [7] = experiment: Reduction in mitochondrial membrane potential in human HL60 cells at 10 uM after 24 hrs by Rh-123-staining based flow cytometry (reference value: 7%); type: functional; design: scale not given: the % may be the effect or the level left
[8] = Cell cycle arrest in human HL60 cells assessed as accumulation at G1 phase at 5 uM after 24 hrs by propidium iodide-staining based flow cytometry (reference value: 36%); type: functional; details: HL-60
[9] = Cell cycle arrest in human HL60 cells assessed as accumulation at S phase at 20 uM after 24 hrs by propidium iodide-staining based flow cytometry (reference value: […]); type: functional; details: HL-60
MCF7 [10] = experiment: Growth inhibition of human MCF7 cells at 30 uM after 72 hrs by MTT assay; type: functional; details: MCF7, 72 h, read-out: GI
[11] = Cell cycle arrest in human HL60 cells assessed as apoptotic cells at 15 uM after 24 hrs by propidium iodide-staining based flow cytometry (reference value: 3%); type: functional; details: HL-60
[12] = Growth inhibition of human HL60 cells after 72 hrs by MTT assay; type: functional, cell-based; details: HL-60, 72 h
HepG2 [13] = experiment: Growth inhibition of human HepG2 cells at 30 uM after 72 hrs by MTT assay; type: functional; details: HepG2, 72 h, read-out: GI
[14] = Cell cycle arrest in human HL60 cells assessed as accumulation at S phase at 5 uM after 24 hrs by propidium iodide-staining based flow cytometry (reference value: 63%); type: functional; details: HL-60
[15] = Cell cycle arrest in human HL60 cells assessed as accumulation at S phase at 10 uM after 24 hrs by propidium iodide-staining based flow cytometry (reference value: 63%); type: functional; details: HL-60
[16] = Growth inhibition of human HL60 cells at 50 uM after 72 hrs by MTT assay; type: functional; details: HL-60, 72 h, read-out: GI
HL-60 [17] = experiment: Induction of apoptosis in human HL60 cells assessed as effect on morphology at 5 to 20 uM after 24 hrs by phase-contrast microscopy; type: functional, cell-based
HL-60 [18] = experiment: Reduction in mitochondrial membrane potential in human HL60 cells at 5 uM after 24 hrs by Rh-123-staining based flow cytometry (reference value: 7%); type: functional; design: scale not given: the % may be the effect or the level left
HL-60 [19] = experiment: Reduction in mitochondrial membrane potential in human HL60 cells at 15 uM after 24 hrs by Rh-123-staining based flow cytometry (reference value: 7%); type: functional; design: scale not given: the % may be the effect or the level left
[20] = Cell cycle arrest in human HL60 cells assessed as accumulation at G2 phase at 20 uM after 24 hrs by propidium iodide-staining based flow cytometry (reference value: […]); type: functional; details: HL-60
[21] = Cell cycle arrest in human HL60 cells assessed as accumulation at G2 phase at 5 uM after 24 hrs by propidium iodide-staining based flow cytometry (reference value: 1%); type: functional; details: HL-60
[22] = Cell cycle arrest in human HL60 cells assessed as accumulation at G1 phase at 20 uM after 24 hrs by propidium iodide-staining based flow cytometry (reference value: 36%); type: functional; details: HL-60
SK-N-SH [23] = experiment: Growth inhibition of human SK-N-SH cells at 50 uM after 72 hrs by MTT assay; type: functional; details: read-out: GI
SK-N-SH [24] = experiment: Growth inhibition of human SK-N-SH cells after 72 hrs by MTT assay; type: functional, cell-based
[25] = Growth inhibition of human MIAPaCa2 cells at 50 uM after 72 hrs by MTT assay; type: functional; details: MIA PaCa-2, 72 h, read-out: GI
[26] = Cell cycle arrest in human HL60 cells assessed as apoptotic cells at 10 uM after 24 hrs by propidium iodide-staining based flow cytometry (reference value: 3%); type: functional; details: HL-60
SK-N-SH [27] = experiment: Growth inhibition of human SK-N-SH cells at 30 uM after 72 hrs by MTT assay; type: functional; details: read-out: GI
MCF7 [28] = experiment: Growth inhibition of human MCF7 cells at 50 uM after 72 hrs by MTT assay; type: functional; details: MCF7, 72 h, read-out: GI
[29] = Growth inhibition of human HL60 cells after 24 hrs by MTT assay; type: functional, cell-based; details: HL-60, 24 h
[30] = Cell cycle arrest in human HL60 cells assessed as accumulation at G1 phase at 10 uM after 24 hrs by propidium iodide-staining based flow cytometry (reference value: 36%); type: functional; details: HL-60
HL-60 [31] = experiment: Induction of apoptosis in human HL60 cells assessed as apoptotic bodies formation after 24 hrs by Hoechst 33342-staining based fluorescence microscopy; type: functional, cell-based
HL-60 [32] = experiment: Reduction in mitochondrial membrane potential in human HL60 cells at 20 uM after 24 hrs by Rh-123-staining based flow cytometry (reference value: 7%); type: functional; design: scale not given: the % may be the effect or the level left
[33] = Cell cycle arrest in human HL60 cells assessed as apoptotic cells at 5 uM after 24 hrs by propidium iodide-staining based flow cytometry (reference value: 3%); type: functional; details: HL-60
[34] = Growth inhibition of human HL60 cells at 30 uM after 72 hrs by MTT assay; type: functional; details: HL-60, 72 h, read-out: GI
MCF7 [35] = experiment: Growth inhibition of human MCF7 cells after 72 hrs by MTT assay; type: functional, cell-based; details: MCF7, 72 h
[36] = Cell cycle arrest in human HL60 cells assessed as accumulation at S phase at 15 uM after 24 hrs by propidium iodide-staining based flow cytometry (reference value: 63%); type: functional; details: HL-60
HepG2 [37] = experiment: Growth inhibition of human HepG2 cells after 72 hrs by MTT assay; type: functional, cell-based; details: HepG2, 72 h
[38] = Cell cycle arrest in human HL60 cells assessed as apoptotic cells at 20 uM after 24 hrs by propidium iodide-staining based flow cytometry (reference value: 3%); type: functional; details: HL-60
HL-60 [39] = experiment: Induction of apoptosis in human HL60 cells assessed as apoptotic bodies formation at 5 to 20 uM after 24 hrs by Hoechst 33342-staining based fluorescence microscopy; type: functional, cell-based

With C=CCc1cc(O)c(O)c(CN2CCN(c3ccccc3O)CC2)c1 the Activity [1] was 21%, the Activity [2] was 7% and the Activity [3] was 1%. For the same compound, the IC50 [4] was 3 µM, the inhibition of growth at 50 µM (HepG2 [5]) was 82.8% and the inhibition of growth at 30 µM [6] was 88.7%. It also gave an Activity (HL-60 [7]) of 44%, an Activity [8] of 47% and an Activity [9] of 44%. It also gave an inhibition of growth at 30 µM (MCF7 [10]) of 77.7%, an Activity [11] of 52% and an IC50 [12] of 1 µM. For the same compound, the inhibition of growth at 30 µM (HepG2 [13]) was 72.8%, the Activity [14] was 52% and the Activity [15] was 52%. For the same compound, the inhibition of growth at 50 µM [16] was 93.5%, the Activity (HL-60 [17]) was “Active” and the Activity (HL-60 [18]) was 38%. It also gave an Activity (HL-60 [19]) of 59%, an Activity [20] of 5% and an Activity [21] of 1%. The Activity [22] was 51%, the inhibition of growth at 50 µM (SK-N-SH [23]) was 79.5% and the IC50 (SK-N-SH [24]) was 11 µM. It also gave an inhibition of growth at 50 µM [25] of 89.9%, an Activity [26] of 12% and an inhibition of growth at 30 µM (SK-N-SH [27]) of 69.2%. It also gave an inhibition of growth at 50 µM (MCF7 [28]) of 79.7%, an IC50 [29] of 10 µM and an Activity [30] of 41%. The Activity (HL-60 [31]) was “Dose-dependent effect”, the Activity (HL-60 [32]) was 71% and the Activity [33] was 7%. It also gave an inhibition of growth at 30 µM [34] of 90.3%, an IC50 (MCF7 [35]) of 9 µM and an Activity [36] of 78%. For the same compound, the IC50 (HepG2 [37]) was 16 µM and the Activity [38] was 89%.

Compound C=CCc1ccc(O)c(O)c1 [HYDROXYCHAVICOL] has an Activity [1] of 17%, an Activity [2] of 9% and an Activity [3] of 22%. For the same compound, the IC50 [4] was > 30 µM, the inhibition of growth at 50 µM (HepG2 [5]) was 29.3% and the inhibition of growth at 30 µM [6] was 41.7%. The Activity (HL-60 [7]) was 22%, the Activity [8] was 35% and the Activity [9] was 67%. For the same compound, the inhibition of growth at 30 µM (MCF7 [10]) was 36.9%, the Activity [11] was 10% and the IC50 [12] was 3 µM. The inhibition of growth at 30 µM (HepG2 [13]) was 27.2%, the Activity [14] was 57% and the Activity [15] was 54%. The inhibition of growth at 50 µM [16] was 92.4%, the Activity (HL-60 [17]) was “Active” and the Activity (HL-60 [18]) was 17%. It also gave an Activity (HL-60 [19]) of 26%, an Activity [20] of 6% and an Activity [21] of 8%. For the same compound, the Activity [22] was 27%, the inhibition of growth at 50 µM (SK-N-SH [23]) was 71.7% and the IC50 (SK-N-SH [24]) was > 30 µM. For the same compound, the inhibition of growth at 50 µM [25] was 42.8%, the Activity [26] was 9% and the inhibition of growth at 30 µM (SK-N-SH [27]) was 34.2%. The inhibition of growth at 50 µM (MCF7 [28]) was 44.1%, the IC50 [29] was 50 µM and the Activity [30] was 37%. The Activity (HL-60 [32]) was 42%, the Activity [33] was 5% and the inhibition of growth at 30 µM [34] was 88.8%. The IC50 (MCF7 [35]) was > 30 µM, the Activity [36] was 61% and the IC50 (HepG2 [37]) was > 30 µM. For the same compound, the Activity [38] was 10% and the Activity (HL-60 [39]) was “Active”.

Compound C=CCc1cc(O)c(O)c(CN2CCNCC2)c1 has an Activity [1] of 50%, an Activity [2] of 4% and an Activity [3] of 11%. The IC50 [4] was 4 µM, the inhibition of growth at 50 µM (HepG2 [5]) was 73% and the inhibition of growth at 30 µM [6] was 82.8%. For the same compound, the Activity (HL-60 [7]) was 44%, the Activity [8] was 41% and the Activity [9] was 44%. It also gave an inhibition of growth at 30 µM (MCF7 [10]) of 69.2%, an Activity [11] of 27% and an IC50 [12] of 2 µM. The inhibition of growth at 30 µM (HepG2 [13]) was 64.2%, the Activity [14] was 57% and the Activity [15] was 37%. For the same compound, the inhibition of growth at 50 µM [16] was 94.4%, the Activity (HL-60 [17]) was “Active” and the Activity (HL-60 [18]) was 38%. It also gave an Activity (HL-60 [19]) of 45%, an Activity [20] of 4% and an Activity [21] of 2%. For the same compound, the Activity [22] was 52%, the inhibition of growth at 50 µM (SK-N-SH [23]) was 69.9% and the IC50 (SK-N-SH [24]) was 14 µM. For the same compound, the inhibition of growth at 50 µM [25] was 85.6%, the Activity [26] was 11% and the inhibition of growth at 30 µM (SK-N-SH [27]) was 65.3%. The inhibition of growth at 50 µM (MCF7 [28]) was 74.2%, the IC50 [29] was 12 µM and the Activity [30] was 59%. The Activity (HL-60 [31]) was “Dose-dependent effect”, the Activity (HL-60 [32]) was 46% and the Activity [33] was 8%. The inhibition of growth at 30 µM [34] was 92.5%, the IC50 (MCF7 [35]) was 12 µM and the Activity [36] was 39%. The IC50 (HepG2 [37]) was 20 µM and the Activity [38] was 88%.

Work on C=CCc1cc(O)c(O)c(CN2CCC(Cc3ccccc3)CC2)c1 yielded an IC50 [4] of 4 µM, an inhibition of growth at 50 µM (HepG2 [5]) of 84% and an inhibition of growth at 30 µM [6] of 88.9%. The inhibition of growth at 30 µM (MCF7 [10]) was 70.9%, the IC50 [12] was 3 µM and the inhibition of growth at 30 µM (HepG2 [13]) was 70.2%. For the same compound, the inhibition of growth at 50 µM [16] was 94.4%, the inhibition of growth at 50 µM (SK-N-SH [23]) was 83.4% and the IC50 (SK-N-SH [24]) was 11 µM. For the same compound, the inhibition of growth at 50 µM [25] was 90.9%, the inhibition of growth at 30 µM (SK-N-SH [27]) was 78.8% and the inhibition of growth at 50 µM (MCF7 [28]) was 86.3%. For the same compound, the IC50 [29] was 15 µM, the inhibition of growth at 30 µM [34] was 90.6% and the IC50 (MCF7 [35]) was 16 µM. The IC50 (HepG2 [37]) was 22 µM.
